{"source": "patent US20100168055A1", "about": "“COMBINATION OF MONOSACCHARIDE WITH C-GLYCOSIDE DERIVATIVE AND USE THEREOF” (L'OREAL, priority 2008, published 2010)", "key": {"[1]": {"system": "keratinocytes (HaCat line)", "experiment": "Keratinocyte proliferation in culture medium deficient in growth factors (Cyquant, Nile red, XTT probes)", "assay_type": "cell-based", "description": "The keratinocytes (HaCat line) are cultured under two conditions: whole defined culture medium (standard condition) and culture medium deficient in growth factors. This deficient medium gives rise to a controlled delay in cell proliferation. Under these conditions, it is then possible to measure the effects of compounds capable of compensating for the deficiency in growth factors of the culture medium and thus of relaunching the cell multiplication and/or of stimulating cell metabolism.\nThe keratinocyte proliferation is measured by means of three markers on the same cell population: the level of DNA, which is proportional to the number of cells (Cyquant probe), the level of constituent polar lipids of cell membranes (Nile red probe) and the mitochondrial respiration, which reflects the general cell metabolism (XTT probe)."}, "[2]": {"system": "dermal fibroblasts of the reconstructed skin", "experiment": "Count of dermal fibroblasts in whole reconstructed skin (propidium iodide staining of frozen sections)", "assay_type": "cell-based, human", "conditions": "5 mM; within 48 hours of treatment", "description": "Rhamnose was studied on a model of whole reconstructed skin in order to measure its anti-aging efficacy on the dermal compartment.\nBriefly, the model of reconstructed skin used is that described by Bell et al. (Bell E. et al., The reconstitution of living skin, J. Invest. Dermatol., 1983, July; 81): it includes a dermal equivalent on which is reconstructed a multistratified epidermis; the dermal equivalent is manufactured from acid-soluble collagen, culture medium containing serum and normal adult human fibroblasts. After 5 days of shrinkage, this equivalent is inoculated with keratinocytes and then cultured for 6 days in immersion and for 7 days in emersion in order to obtain a multistratified and differentiated epidermis having a horny layer.\nThe reconstructed skin is treated with 5 mM rhamnose for 2 days and 5 days in the culture medium; after the treatment, the reconstructed skins are included in Tissue Tek in order to produce frozen sections 7 μm thick with a cryostat. […] Three frozen sections are prepared at random on each reconstructed skin; on each section, two microscopic fields (25× objective lens) are analysed by fluorescence microscopy and photographed. The dermal fibroblasts are thus counted for each reconstructed skin on six images in total representing the six microscopic fields considered. […]"}, "type I procollagen": {"system": "type I procollagen", "experiment": "Indirect immunofluorescence detection of type I procollagen in the dermis of reconstructed skin", "assay_type": "cell-based, human", "description": "Conventional detection via indirect immunofluorescence of type I procollagen in the dermis of the reconstructed skin was also performed on other series of frozen sections (anti-procoll 1 antibody (MAB 1912 Millipore)+FTIC-coupled conjugate (112-095-068 Jackson Immunoresearch)). In order to obtain bearings within the cutaneous architecture during the microscopic examination of the sections, the cell nuclei of the keratinocytes and fibroblasts are localized by staining them with propidium iodide, as described above. Three frozen sections are prepared at random on each reconstructed skin and on each section, and two microscopic fields (25× objective lens) are analysed by fluorescence microscopy and photographed. The levels of fluorescence proportional to the amount of type I procollagen are compared between the control skin and the skin treated with rhamnose."}, "[3]": {"conditions": "1 mM, HaCat keratinocytes in medium depleted in growth factors, vs untreated control"}}, "data": [{"smiles": "C[C@H](O)[C@H](O)[C@@H](O)[C@@H](O)C=O", "note": "[rhamnose, L-rhamnose]", "values": [{"measurement": "efficacy on keratinocyte proliferation", "setting": "[1]; 500 μM, medium depleted in growth factors", "result": "already show efficacy"}, {"measurement": "level of DNA (Cyquant)", "setting": "[1]; [3]", "result": "significantly increased"}, {"measurement": "level of polar lipids (Nile red signal)", "setting": "[1]; [3]", "result": "significantly increased"}, {"measurement": "mitochondrial respiration (XTT signal)", "setting": "[1]; [3]", "result": "significantly increased"}, {"measurement": "number of cells compared with an untreated control (keratinocyte proliferation)", "setting": "[1]; keratinocytes cultured in medium depleted in growth factor", "result": "higher number of cells"}, {"measurement": "growth of the dermal fibroblasts of the reconstructed skin", "setting": "[2]", "result": "stimulation of growth"}, {"measurement": "synthesis of type I procollagen by the fibroblasts", "setting": "type I procollagen; 1 mM for 120 hours, reconstructed skin", "result": "greatly stimulated"}, {"measurement": "green fluorescence (proportional to amount of type I procollagen) compared with control skin", "setting": "type I procollagen; 1 mM for 120 hours, reconstructed skin section", "result": "marked increase"}, {"measurement": "procollagen 1 synthesis", "setting": "type I procollagen; 1 mM, reconstructed skin", "result": "stimulation"}, {"measurement": "procollagen 1 synthesis", "setting": "type I procollagen; 5 mM, reconstructed skin", "result": "stimulation"}]}]}
